Laboratory results taken from patent US9062124B2, “GIP-based mixed agonists for treatment of metabolic disorders and obesity” (priority 2008, dated 2015).
Where two headings read alike, the source gives them in different places. Where a SMILES comes first, the peptide text is derived from it. Bridges are numbered along the chain shown (N, C = ends). Where no end group is shown, it is not given here. [ ]: non-standard residue; d: D form. The star is where a group is joined. PEG 40 kDa = PEG (40 kDa) covalently attached to Cys; Octanoyl = CCCCCCCC(=O)*; Aib = CC(C)(N)C(=O)O

Tests used:
Type in all cases: cell-based
GLP-1 receptor = target: T1, GLP-1 receptor (Homo sapiens, UniProt P43220); assay: cAMP synthesis functional assay (firefly luciferase reporter in HEK293 cells), GLP-1 receptor
T1 construct: expressed in transfected cells; host or cells: HEK293
T1 sequence (P43220 24-463, species assumed): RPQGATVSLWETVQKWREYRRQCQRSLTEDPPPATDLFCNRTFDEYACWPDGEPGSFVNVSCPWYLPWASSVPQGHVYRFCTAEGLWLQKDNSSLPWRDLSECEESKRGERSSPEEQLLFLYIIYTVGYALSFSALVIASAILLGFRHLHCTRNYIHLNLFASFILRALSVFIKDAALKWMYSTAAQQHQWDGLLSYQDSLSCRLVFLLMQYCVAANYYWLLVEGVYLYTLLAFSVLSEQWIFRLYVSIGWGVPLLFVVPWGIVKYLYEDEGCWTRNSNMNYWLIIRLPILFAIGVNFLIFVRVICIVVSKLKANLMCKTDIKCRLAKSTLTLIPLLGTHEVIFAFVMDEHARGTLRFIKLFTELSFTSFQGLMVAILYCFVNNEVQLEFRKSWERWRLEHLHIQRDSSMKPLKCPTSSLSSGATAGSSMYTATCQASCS

glucagon receptor = target: T2, glucagon receptor (Homo sapiens, UniProt P47871); assay: cAMP synthesis functional assay (firefly luciferase reporter in HEK293 cells), glucagon receptor; details: for EC50: Glucagon Receptor EC50, cAMP luciferase reporter assay as in Example 16
T2 construct: expressed in transfected cells; host or cells: HEK293
T2 sequence (P47871 26-477): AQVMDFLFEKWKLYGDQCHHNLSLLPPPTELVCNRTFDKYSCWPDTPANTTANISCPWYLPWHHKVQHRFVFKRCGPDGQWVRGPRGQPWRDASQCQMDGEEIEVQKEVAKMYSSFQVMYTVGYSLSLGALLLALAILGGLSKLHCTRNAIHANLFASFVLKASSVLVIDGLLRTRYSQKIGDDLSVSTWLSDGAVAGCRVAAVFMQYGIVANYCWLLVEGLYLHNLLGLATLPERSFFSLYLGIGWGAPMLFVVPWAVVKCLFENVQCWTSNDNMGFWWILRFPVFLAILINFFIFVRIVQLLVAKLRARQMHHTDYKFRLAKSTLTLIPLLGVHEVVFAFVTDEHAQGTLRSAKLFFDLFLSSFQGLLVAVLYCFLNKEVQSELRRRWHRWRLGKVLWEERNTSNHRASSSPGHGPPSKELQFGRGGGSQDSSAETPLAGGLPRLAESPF

GIP receptor = target: T3, GIP receptor (Homo sapiens, UniProt P48546); assay: cAMP synthesis functional assay (firefly luciferase reporter in HEK293 cells), GIP receptor
T3 construct: expressed in transfected cells; host or cells: HEK293
T3 sequence (P48546 22-466): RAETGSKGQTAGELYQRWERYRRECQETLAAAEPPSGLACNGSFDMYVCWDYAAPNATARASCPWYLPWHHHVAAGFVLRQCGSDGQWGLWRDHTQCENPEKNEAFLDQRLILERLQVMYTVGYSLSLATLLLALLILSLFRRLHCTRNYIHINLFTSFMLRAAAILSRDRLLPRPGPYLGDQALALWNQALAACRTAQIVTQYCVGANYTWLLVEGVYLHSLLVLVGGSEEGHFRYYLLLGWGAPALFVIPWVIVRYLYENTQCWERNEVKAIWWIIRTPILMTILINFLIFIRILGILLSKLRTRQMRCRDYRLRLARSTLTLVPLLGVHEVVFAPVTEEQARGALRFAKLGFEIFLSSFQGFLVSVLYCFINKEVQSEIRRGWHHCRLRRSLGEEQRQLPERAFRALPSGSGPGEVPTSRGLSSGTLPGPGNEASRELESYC

[1] = tested on: glucagon receptor, GLP-1 receptor or GIP receptor; assay: Agonist profile across receptors assigned from the cAMP reporter assay data; details: assigned from the in vitro EC50 data of Tables 1-4
[2] = relative to the standard (Std.) EC50 of the same run
[3] = Table 1, relative to the native hormone of the indicated receptor

## CCCCCCCCCCCCCC(=O)NCCCC[C@H](NC(=O)[C@H](CO)NC(=O)[C@@H]1CCCN1C(=O)[C@@H]1CCCN1C(=O)[C@@H]1CCCN1C(=O)[C@H](C)NC(=O)CNC(=O)[C@H](CO)NC(=O)[C@H](CO)NC(=O)[C@@H]1CCCN1C(=O)CNC(=O)CNC(=O)[C@H](C)NC(=O)[C@H](CC(C)C)NC(=O)[C@H](CC(C)C)NC(=O)[C@H](Cc1c[nH]c2ccccc12)NC(=O)[C@H](CS)NC(=O)[C@@H](NC(=O)[C@H](Cc1ccccc1)NC(=O)[C@H](CCC(=O)O)NC(=O)C(C)(C)NC(=O)[C@H](C)NC(=O)[C@H](C)NC(=O)[C@H](CCC(N)=O)NC(=O)[C@H](CCCCN)NC(=O)[C@H](CC(=O)O)NC(=O)[C@H](CC(C)C)NC(=O)[C@H](Cc1ccc(O)cc1)NC(=O)[C@@H](NC(=O)[C@H](CO)NC(=O)[C@H](Cc1ccc(O)cc1)NC(=O)[C@H](CC(=O)O)NC(=O)[C@H](CO)NC(=O)[C@@H](NC(=O)[C@H](Cc1ccccc1)NC(=O)[C@@H](NC(=O)CNC(=O)[C@H](CCC(=O)O)NC(=O)C(C)(C)NC(=O)[C@@H](N)Cc1ccc(O)cc1)[C@@H](C)O)[C@@H](C)O)[C@@H](C)CC)C(C)C)C(N)=O [mt-306]
GLP-1 receptor; [2]
  GLP-1 Receptor relative activity: 80.60%
Glucagon receptor
  EC50: 1500 pM
Glucagon receptor; [2]
  Glucagon Receptor relative activity: 3.20%
GIP receptor; [2]
  GIP Receptor relative activity: 254.69%
[1]
  receptor activity profile (glucagon / GLP-1 / GIP agonism): exhibited activity at the GIP, GLP-1, and glucagon receptors

## mt-295: linear peptide of Table 3 (Y[Aib]EGTFTSDYSIYLDKQAA[Aib]EFVNWLLAGGPSSGAPPPSC(PEG 40 kDa)-NH2)
GLP-1 receptor; read-out: GLP-1 Receptor EC50, cAMP luciferase reporter assay as in Example 16
  EC50: 0.114 nM
GLP-1 receptor; [2]
  GLP-1 Receptor relative activity: 6.74%
Glucagon receptor; [2]
  Glucagon Receptor relative activity: 0.03%
GIP receptor; read-out: GIP Receptor EC50, cAMP luciferase reporter assay as in Example 16
  EC50: 57.7 pM
GIP receptor; [2]
  GIP Receptor relative activity: 19.06%
[1]
  receptor activity profile (glucagon / GLP-1 / GIP agonism): exhibited activity at the GIP, GLP-1, and glucagon receptors

## CC[C@H](C)[C@H](NC(=O)[C@H](Cc1ccccc1)NC(=O)[C@H](CCC(=O)O)NC(=O)[C@@H]1CCCCNC(=O)CC[C@H](NC(=O)[C@H](CC(=O)O)NC(=O)[C@H](CC(C)C)NC(=O)[C@H](Cc2ccc(O)cc2)NC(=O)[C@H](CCCCN)NC(=O)[C@H](CO)NC(=O)[C@H](Cc2ccc(O)cc2)NC(=O)[C@H](CC(=O)O)NC(=O)[C@H](CO)NC(=O)[C@@H](NC(=O)[C@H](Cc2ccccc2)NC(=O)[C@@H](NC(=O)CNC(=O)[C@H](CCC(N)=O)NC(=O)[C@H](CO)NC(=O)[C@@H](N)Cc2ccc(O)cc2)[C@@H](C)O)[C@@H](C)O)C(=O)N[C@@H](CCC(N)=O)C(=O)N[C@@H](C)C(=O)N[C@@H](C)C(=O)N1)C(=O)N[C@@H](C)C(=O)N[C@@H](Cc1c[nH]c2ccccc12)C(=O)N[C@@H](CC(C)C)C(=O)N[C@@H](CC(C)C)C(=O)N[C@@H](C)C(=O)NCC(=O)NCC(=O)N1CCC[C@H]1C(=O)N[C@@H](CO)C(=O)N[C@@H](CO)C(=O)NCC(=O)N[C@@H](C)C(=O)N1CCC[C@H]1C(=O)N1CCC[C@H]1C(=O)N1CCC[C@H]1C(=O)N[C@@H](CO)C(N)=O [mt-151] (H-YSQGTFTSDYSKYLDEQAAKEFIAWLLAGGPSSGAPPPS-NH2; lactam 16-20; N-terminus assumed)
GLP-1 receptor; [3]
  GLP-1 Receptor relative activity: 30.16%
Glucagon receptor; [3]
  Glucagon Receptor relative activity: 30.16%
GIP receptor; [3]
  GIP Receptor relative activity: 7.28%
[1]
  receptor activity profile (glucagon / GLP-1 / GIP agonism): exemplary GLP-1/GIP/glucagon triagonist peptides

## CC[C@H](C)[C@H](NC(=O)[C@H](CO)NC(=O)[C@H](Cc1ccc(O)cc1)NC(=O)[C@H](CC(=O)O)NC(=O)[C@H](CO)NC(=O)[C@@H](NC(=O)[C@H](Cc1ccccc1)NC(=O)[C@@H](NC(=O)CNC(=O)[C@H](CCC(N)=O)NC(=O)C(C)(C)NC(=O)[C@@H](N)Cc1ccc(O)cc1)[C@@H](C)O)[C@@H](C)O)C(=O)N[C@@H](Cc1ccc(O)cc1)C(=O)N[C@@H](CC(C)C)C(=O)N[C@@H](CC(=O)O)C(=O)N[C@H]1CCC(=O)NCCCC[C@@H](C(=O)N[C@@H](CCC(=O)O)C(=O)N[C@@H](Cc2ccccc2)C(=O)N[C@H](C(=O)N[C@@H](CC(N)=O)C(=O)N[C@@H](Cc2c[nH]c3ccccc23)C(=O)N[C@@H](CC(C)C)C(=O)N[C@@H](CC(C)C)C(=O)N[C@@H](C)C(=O)NCC(=O)NCC(=O)N2CCC[C@H]2C(=O)N[C@@H](CO)C(=O)N[C@@H](CO)C(=O)NCC(=O)N[C@@H](C)C(=O)N2CCC[C@H]2C(=O)N2CCC[C@H]2C(=O)N2CCC[C@H]2C(=O)N[C@@H](CO)C(=O)N[C@@H](CS)C(N)=O)C(C)C)NC(=O)[C@H](C)NC(=O)[C@H](C)NC(=O)[C@H](CCC(N)=O)NC1=O [mt-165] (H-Y[Aib]QGTFTSDYSIYLDEQAAKEFVNWLLAGGPSSGAPPPSC-NH2; lactam 16-20; N-terminus assumed)
GLP-1 receptor; GLP-1 Receptor EC50, nM, Table 1
  EC50: 0.023 nM
GLP-1 receptor; [3]
  GLP-1 Receptor relative activity: 147.83%
Glucagon receptor; [3]
  Glucagon Receptor relative activity: 18.81%
GIP receptor; [3]
  GIP Receptor relative activity: 27.03%
[1]
  receptor activity profile (glucagon / GLP-1 / GIP agonism): exemplary GLP-1/GIP/glucagon triagonist peptides

## CC[C@H](C)[C@H](NC(=O)[C@H](CO)NC(=O)[C@H](Cc1ccc(O)cc1)NC(=O)[C@H](CC(=O)O)NC(=O)[C@H](CO)NC(=O)[C@@H](NC(=O)[C@H](Cc1ccccc1)NC(=O)[C@@H](NC(=O)CNC(=O)[C@H](CCC(N)=O)NC(=O)C(C)(C)NC(=O)[C@@H](N)Cc1ccc(O)cc1)[C@@H](C)O)[C@@H](C)O)C(=O)N[C@@H](Cc1ccc(O)cc1)C(=O)N[C@@H](CC(C)C)C(=O)N[C@@H](CC(=O)O)C(=O)N[C@H]1CCC(=O)NCCCC[C@@H](C(=O)N[C@@H](CCC(=O)O)C(=O)N[C@@H](Cc2ccccc2)C(=O)N[C@H](C(=O)N[C@@H](CC(N)=O)C(=O)N[C@@H](Cc2c[nH]c3ccccc23)C(=O)N[C@@H](CC(C)C)C(=O)N[C@@H](CC(C)C)C(=O)N[C@@H](C)C(=O)NCC(=O)NCC(=O)N2CCC[C@H]2C(=O)N[C@@H](CO)C(=O)N[C@@H](CO)C(=O)NCC(=O)N[C@@H](C)C(=O)N2CCC[C@H]2C(=O)N2CCC[C@H]2C(=O)N2CCC[C@H]2C(=O)N[C@@H](CO)C(N)=O)C(C)C)NC(=O)[C@H](C)NC(=O)[C@H](C)NC(=O)[C@H](CCC(N)=O)NC1=O [mt-152] (H-Y[Aib]QGTFTSDYSIYLDEQAAKEFVNWLLAGGPSSGAPPPS-NH2; lactam 16-20; N-terminus assumed)
GLP-1 receptor; [3]
  GLP-1 Receptor relative activity: 168.75%
Glucagon receptor; [3]
  Glucagon Receptor relative activity: 36.52%
GIP receptor; [3]
  GIP Receptor relative activity: 41.19%
[1]
  receptor activity profile (glucagon / GLP-1 / GIP agonism): exemplary GLP-1/GIP/glucagon triagonist peptides

## CCCCCCCC(=O)NCCCC[C@H](NC(=O)[C@H](CO)NC(=O)[C@@H]1CCCN1C(=O)[C@@H]1CCCN1C(=O)[C@@H]1CCCN1C(=O)[C@H](C)NC(=O)CNC(=O)[C@H](CO)NC(=O)[C@H](CO)NC(=O)[C@@H]1CCCN1C(=O)CNC(=O)CNC(=O)[C@H](C)NC(=O)[C@H](CC(C)C)NC(=O)[C@H](CC(C)C)NC(=O)[C@H](Cc1c[nH]c2ccccc12)NC(=O)[C@H](CC(N)=O)NC(=O)[C@@H](NC(=O)[C@H](Cc1ccccc1)NC(=O)[C@H](CCC(=O)O)NC(=O)C(C)(C)NC(=O)[C@H](C)NC(=O)[C@H](C)NC(=O)[C@H](CCC(N)=O)NC(=O)[C@H](CCCCN)NC(=O)[C@H](CC(=O)O)NC(=O)[C@H](CC(C)C)NC(=O)[C@H](Cc1ccc(O)cc1)NC(=O)[C@@H](NC(=O)[C@H](CO)NC(=O)[C@H](Cc1ccc(O)cc1)NC(=O)[C@H](CC(=O)O)NC(=O)[C@H](CO)NC(=O)[C@@H](NC(=O)[C@H](Cc1ccccc1)NC(=O)[C@@H](NC(=O)CNC(=O)[C@H](CCC(N)=O)NC(=O)C(C)(C)NC(=O)[C@@H](N)Cc1ccc(O)cc1)[C@@H](C)O)[C@@H](C)O)[C@@H](C)CC)C(C)C)C(N)=O [mt-323] (H-Y[Aib]QGTFTSDYSIYLDKQAA[Aib]EFVNWLLAGGPSSGAPPPSK(Octanoyl)-NH2; N-terminus assumed)
GLP-1 receptor; GLP-1 Receptor EC50, cAMP luciferase reporter assay as in Example 16
  EC50: 0.0571 nM
GLP-1 receptor; [2]
  GLP-1 Receptor relative activity: 35.55%
Glucagon receptor
  EC50: 217 pM
Glucagon receptor; [2]
  Glucagon Receptor relative activity: 39.00%
GIP receptor; [2]
  GIP Receptor relative activity: 122.62%
[1]
  receptor activity profile (glucagon / GLP-1 / GIP agonism): exhibited activity at the GIP, GLP-1, and glucagon receptors
